Laboratory results published in publication PMC4508061, “Selectivity Profiling and Biological Activity of Novel β-Carbolines as Potent and Selective DYRK1 Kinase Inhibitors” (PLoS ONE, 2015).

Legend:
[1] = target: SRC (Homo sapiens, UniProt P12931); experiment: ProQinase radiometric kinase panel; conditions: mean of 2 exp.
[2] = target: TLK1 (Homo sapiens, UniProt Q9UKI8); experiment: ProQinase radiometric kinase panel; conditions: mean of 2 exp.
[3] = target: STK17A (Homo sapiens, UniProt Q9UEE5); experiment: ProQinase radiometric kinase panel; conditions: mean of 2 exp.
[4] = target: FGF-R4 (Homo sapiens, UniProt P22455); experiment: ProQinase radiometric kinase panel; conditions: mean of 2 exp.
[5] = target: EPHA2 (Homo sapiens, UniProt P29317); experiment: ProQinase radiometric kinase panel; conditions: mean of 2 exp.
[6] = target: IRAK4 (Homo sapiens, UniProt Q9NWZ3); experiment: ProQinase radiometric kinase panel; conditions: mean of 2 exp.
[7] = target: ASK1 (Homo sapiens, UniProt Q99683); experiment: ProQinase radiometric kinase panel; conditions: mean of 2 exp.
[8] = target: CHK2 (Homo sapiens, UniProt O96017); experiment: ProQinase radiometric kinase panel; conditions: mean of 2 exp.
[9] = target: NEK7 (Homo sapiens, UniProt Q8TDX7); experiment: ProQinase radiometric kinase panel; conditions: mean of 2 exp.
[10] = target: CK2-alpha1 (Homo sapiens, UniProt P68400); experiment: ProQinase radiometric kinase panel; conditions: mean of 2 exp.
[11] = target: NEK2 (Homo sapiens, UniProt P51955); experiment: ProQinase radiometric kinase panel; conditions: mean of 2 exp.
[12] = target: NEK6 (Homo sapiens, UniProt Q9HC98); experiment: ProQinase radiometric kinase panel; conditions: mean of 2 exp.
[13] = target: SRMS (Homo sapiens, UniProt Q9H3Y6); experiment: ProQinase radiometric kinase panel; conditions: mean of 2 exp.
[14] = target: ERK1 (Homo sapiens, UniProt P27361); experiment: ProQinase radiometric kinase panel; conditions: mean of 2 exp.
[15] = target: FYN (Homo sapiens, UniProt P06241); experiment: ProQinase radiometric kinase panel; conditions: mean of 2 exp.
[16] = target: MAP4K5 (Homo sapiens, UniProt Q9Y4K4); experiment: ProQinase radiometric kinase panel; conditions: mean of 2 exp.
[17] = target: ITK (Homo sapiens, UniProt Q08881); experiment: ProQinase radiometric kinase panel; conditions: mean of 2 exp.
[18] = target: SGK3 (Homo sapiens, UniProt Q96BR1); experiment: ProQinase radiometric kinase panel; conditions: mean of 2 exp.
[19] = target: CDK1/CycE1 (Homo sapiens, UniProt P06493); experiment: ProQinase radiometric kinase panel; conditions: mean of 2 exp.
[20] = target: CAMKK2 (Homo sapiens, UniProt Q96RR4); experiment: ProQinase radiometric kinase panel; conditions: mean of 2 exp.
[21] = target: SRPK1 (Homo sapiens, UniProt Q96SB4); experiment: ProQinase radiometric kinase panel; conditions: mean of 2 exp.
[22] = target: CDK7/CycH/MAT1 (Homo sapiens, UniProt P50613); experiment: ProQinase radiometric kinase panel; conditions: mean of 2 exp.
[23] = target: ACV-R2A (Homo sapiens, UniProt P27037); experiment: ProQinase radiometric kinase panel; conditions: mean of 2 exp.
[24] = target: PIM3 (Homo sapiens, UniProt Q86V86); experiment: ProQinase radiometric kinase panel; conditions: mean of 2 exp.
[25] = Cell viability XTT assay; type: cell-based; conditions: rat, PC12 cells, read-out: Viability of treated cells relative to untreated control
[26] = test system: PC12 cells; experiment: Cell viability XTT assay; type: cell-based; conditions: PC12, up to 10 μM, 3 days
[27] = target: PRK2 (Homo sapiens, UniProt Q16513); experiment: ProQinase radiometric kinase panel; conditions: mean of 2 exp.
[28] = target: DAPK1 (Homo sapiens, UniProt P53355); experiment: ProQinase radiometric kinase panel; conditions: mean of 2 exp.
[29] = target: SNF1LK2 (Homo sapiens, UniProt Q9H0K1); experiment: ProQinase radiometric kinase panel; conditions: mean of 2 exp.
[30] = target: IRAK1 (Homo sapiens, UniProt P51617); experiment: ProQinase radiometric kinase panel; conditions: mean of 2 exp.
[31] = target: MARK3 (Homo sapiens, UniProt P27448); experiment: ProQinase radiometric kinase panel; conditions: mean of 2 exp.
[32] = target: STK25 (Homo sapiens, UniProt O00506); experiment: ProQinase radiometric kinase panel; conditions: mean of 2 exp.
[33] = target: PDGFR-alpha (Homo sapiens, UniProt P16234); experiment: ProQinase radiometric kinase panel; conditions: mean of 2 exp.
[34] = target: DNA-PK (Homo sapiens, UniProt P78527); experiment: ProQinase radiometric kinase panel; conditions: mean of 2 exp.
[35] = target: TSK2 (Homo sapiens, UniProt Q96PF2); experiment: ProQinase radiometric kinase panel; conditions: mean of 2 exp.
[36] = target: NEK3 (Homo sapiens, UniProt P51956); experiment: ProQinase radiometric kinase panel; conditions: mean of 2 exp.
[37] = target: MARK2 (Homo sapiens, UniProt Q7KZI7); experiment: ProQinase radiometric kinase panel; conditions: mean of 2 exp.
[38] = target: STK33 (Homo sapiens, UniProt Q9BYT3); experiment: ProQinase radiometric kinase panel; conditions: mean of 2 exp.
[39] = target: PKC-eta (Homo sapiens, UniProt P24723); experiment: ProQinase radiometric kinase panel; conditions: mean of 2 exp.

Chain of ERK1 (P27361 whole entry): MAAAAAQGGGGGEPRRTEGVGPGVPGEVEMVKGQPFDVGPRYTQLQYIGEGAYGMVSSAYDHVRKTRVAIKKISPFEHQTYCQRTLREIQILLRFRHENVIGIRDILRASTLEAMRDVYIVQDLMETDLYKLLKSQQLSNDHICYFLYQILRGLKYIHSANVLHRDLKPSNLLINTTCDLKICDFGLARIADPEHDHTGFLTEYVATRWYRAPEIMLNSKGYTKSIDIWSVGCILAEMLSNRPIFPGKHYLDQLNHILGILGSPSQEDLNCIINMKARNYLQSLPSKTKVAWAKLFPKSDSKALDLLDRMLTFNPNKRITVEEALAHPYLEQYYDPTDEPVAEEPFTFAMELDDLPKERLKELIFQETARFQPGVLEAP
Chain of TLK1 (Q9UKI8 whole entry): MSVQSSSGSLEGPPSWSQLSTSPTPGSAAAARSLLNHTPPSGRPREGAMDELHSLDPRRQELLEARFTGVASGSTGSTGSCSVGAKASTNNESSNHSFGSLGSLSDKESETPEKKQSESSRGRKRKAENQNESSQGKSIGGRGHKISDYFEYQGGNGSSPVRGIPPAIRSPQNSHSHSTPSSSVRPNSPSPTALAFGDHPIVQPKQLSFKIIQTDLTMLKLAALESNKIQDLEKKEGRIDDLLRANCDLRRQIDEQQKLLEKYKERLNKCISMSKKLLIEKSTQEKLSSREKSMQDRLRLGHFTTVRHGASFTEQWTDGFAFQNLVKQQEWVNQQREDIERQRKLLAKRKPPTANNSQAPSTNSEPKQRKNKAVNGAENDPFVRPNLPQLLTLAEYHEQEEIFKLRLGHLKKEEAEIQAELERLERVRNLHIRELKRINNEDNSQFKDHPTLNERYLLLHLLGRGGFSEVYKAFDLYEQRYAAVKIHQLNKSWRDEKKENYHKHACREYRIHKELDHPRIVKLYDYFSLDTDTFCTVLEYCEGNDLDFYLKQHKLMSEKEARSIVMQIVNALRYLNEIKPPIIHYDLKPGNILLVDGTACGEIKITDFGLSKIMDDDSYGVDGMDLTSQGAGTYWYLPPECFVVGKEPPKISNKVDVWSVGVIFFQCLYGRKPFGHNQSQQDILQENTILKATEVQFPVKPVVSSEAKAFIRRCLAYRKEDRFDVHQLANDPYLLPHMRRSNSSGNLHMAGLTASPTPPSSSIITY
Chain of MARK2 (Q7KZI7 whole entry): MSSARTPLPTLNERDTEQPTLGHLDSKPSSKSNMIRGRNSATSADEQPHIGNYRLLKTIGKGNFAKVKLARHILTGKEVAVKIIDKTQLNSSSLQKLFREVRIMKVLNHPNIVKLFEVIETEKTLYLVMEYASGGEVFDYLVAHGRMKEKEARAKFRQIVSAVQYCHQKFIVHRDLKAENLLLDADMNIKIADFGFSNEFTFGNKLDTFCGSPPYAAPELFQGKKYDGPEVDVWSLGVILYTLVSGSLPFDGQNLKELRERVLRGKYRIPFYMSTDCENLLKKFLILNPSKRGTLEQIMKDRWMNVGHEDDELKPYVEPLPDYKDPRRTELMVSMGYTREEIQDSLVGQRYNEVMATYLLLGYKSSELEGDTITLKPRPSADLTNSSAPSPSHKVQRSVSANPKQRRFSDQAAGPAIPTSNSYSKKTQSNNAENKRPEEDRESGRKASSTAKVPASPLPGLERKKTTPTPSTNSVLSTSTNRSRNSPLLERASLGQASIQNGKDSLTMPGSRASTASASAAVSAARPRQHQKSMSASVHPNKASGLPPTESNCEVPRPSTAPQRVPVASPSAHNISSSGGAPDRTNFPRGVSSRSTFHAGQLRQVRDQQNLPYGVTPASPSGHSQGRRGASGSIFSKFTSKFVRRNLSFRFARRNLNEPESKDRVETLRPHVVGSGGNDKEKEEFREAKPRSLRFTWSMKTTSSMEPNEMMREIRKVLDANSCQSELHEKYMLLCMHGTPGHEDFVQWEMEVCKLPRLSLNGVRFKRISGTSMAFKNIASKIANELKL
Chain of NEK6 (Q9HC98 whole entry): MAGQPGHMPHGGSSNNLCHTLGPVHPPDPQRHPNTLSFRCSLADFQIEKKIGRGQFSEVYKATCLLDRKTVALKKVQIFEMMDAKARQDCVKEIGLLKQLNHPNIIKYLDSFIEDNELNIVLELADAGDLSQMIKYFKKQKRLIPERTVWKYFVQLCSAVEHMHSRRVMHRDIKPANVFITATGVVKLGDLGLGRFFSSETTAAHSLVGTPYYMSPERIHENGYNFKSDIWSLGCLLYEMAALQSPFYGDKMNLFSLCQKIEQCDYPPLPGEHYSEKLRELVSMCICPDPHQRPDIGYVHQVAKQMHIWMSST
Chain of SRC (P12931 whole entry): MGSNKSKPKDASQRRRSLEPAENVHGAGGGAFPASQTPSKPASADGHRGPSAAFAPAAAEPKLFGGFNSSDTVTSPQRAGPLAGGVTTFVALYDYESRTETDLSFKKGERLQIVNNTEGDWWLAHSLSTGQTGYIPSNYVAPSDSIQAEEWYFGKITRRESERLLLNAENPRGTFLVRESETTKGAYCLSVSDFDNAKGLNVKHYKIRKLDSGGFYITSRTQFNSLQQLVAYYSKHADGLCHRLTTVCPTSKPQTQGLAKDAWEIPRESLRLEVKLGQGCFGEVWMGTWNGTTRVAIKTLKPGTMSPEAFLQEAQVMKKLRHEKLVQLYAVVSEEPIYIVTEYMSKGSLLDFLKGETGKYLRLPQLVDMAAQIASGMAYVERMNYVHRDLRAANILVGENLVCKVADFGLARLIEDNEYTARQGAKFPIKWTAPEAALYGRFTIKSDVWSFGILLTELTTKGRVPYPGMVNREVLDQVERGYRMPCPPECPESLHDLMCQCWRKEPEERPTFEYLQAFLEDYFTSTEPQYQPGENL
Chain of STK17A (Q9UEE5 whole entry): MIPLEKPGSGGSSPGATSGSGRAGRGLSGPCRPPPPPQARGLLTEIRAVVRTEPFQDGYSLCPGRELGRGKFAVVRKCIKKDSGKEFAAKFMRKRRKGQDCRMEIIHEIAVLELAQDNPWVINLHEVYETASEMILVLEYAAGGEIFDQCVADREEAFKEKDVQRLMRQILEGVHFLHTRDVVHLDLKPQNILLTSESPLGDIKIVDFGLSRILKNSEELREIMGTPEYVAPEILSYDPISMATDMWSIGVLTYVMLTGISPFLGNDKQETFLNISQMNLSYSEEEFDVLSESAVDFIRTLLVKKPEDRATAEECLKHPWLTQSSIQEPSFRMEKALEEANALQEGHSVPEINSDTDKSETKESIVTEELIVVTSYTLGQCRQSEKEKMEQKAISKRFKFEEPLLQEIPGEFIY
Chain of CAMKK2 (Q96RR4 whole entry): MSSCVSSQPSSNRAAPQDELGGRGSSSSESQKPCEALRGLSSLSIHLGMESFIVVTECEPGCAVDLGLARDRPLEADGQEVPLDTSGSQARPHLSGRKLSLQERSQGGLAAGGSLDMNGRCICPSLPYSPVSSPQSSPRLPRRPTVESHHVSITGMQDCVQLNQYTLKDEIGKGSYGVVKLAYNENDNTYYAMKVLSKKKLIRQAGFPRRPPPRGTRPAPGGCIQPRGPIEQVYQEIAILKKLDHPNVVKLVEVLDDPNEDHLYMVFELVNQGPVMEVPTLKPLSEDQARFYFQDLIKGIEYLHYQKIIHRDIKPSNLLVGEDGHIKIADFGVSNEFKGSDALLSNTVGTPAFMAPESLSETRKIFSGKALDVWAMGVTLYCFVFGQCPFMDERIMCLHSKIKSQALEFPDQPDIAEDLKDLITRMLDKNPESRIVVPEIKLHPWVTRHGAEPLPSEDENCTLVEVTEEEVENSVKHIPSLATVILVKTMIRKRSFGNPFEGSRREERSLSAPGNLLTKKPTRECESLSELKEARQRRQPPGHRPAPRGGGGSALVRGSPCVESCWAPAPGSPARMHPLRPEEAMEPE
Chain of NEK2 (P51955 whole entry): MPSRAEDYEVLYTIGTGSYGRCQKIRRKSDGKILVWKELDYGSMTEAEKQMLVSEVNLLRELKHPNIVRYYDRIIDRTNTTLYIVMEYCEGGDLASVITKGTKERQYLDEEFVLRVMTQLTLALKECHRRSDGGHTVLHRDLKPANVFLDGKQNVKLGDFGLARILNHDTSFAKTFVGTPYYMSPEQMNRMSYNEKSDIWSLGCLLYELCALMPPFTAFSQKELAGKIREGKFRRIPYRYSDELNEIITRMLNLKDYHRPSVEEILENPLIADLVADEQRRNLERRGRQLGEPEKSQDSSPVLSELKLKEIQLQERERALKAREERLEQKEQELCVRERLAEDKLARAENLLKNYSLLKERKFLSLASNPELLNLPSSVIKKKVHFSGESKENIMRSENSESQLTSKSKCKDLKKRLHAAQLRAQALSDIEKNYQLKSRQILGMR
Chain of CK2-alpha1 (P68400 whole entry): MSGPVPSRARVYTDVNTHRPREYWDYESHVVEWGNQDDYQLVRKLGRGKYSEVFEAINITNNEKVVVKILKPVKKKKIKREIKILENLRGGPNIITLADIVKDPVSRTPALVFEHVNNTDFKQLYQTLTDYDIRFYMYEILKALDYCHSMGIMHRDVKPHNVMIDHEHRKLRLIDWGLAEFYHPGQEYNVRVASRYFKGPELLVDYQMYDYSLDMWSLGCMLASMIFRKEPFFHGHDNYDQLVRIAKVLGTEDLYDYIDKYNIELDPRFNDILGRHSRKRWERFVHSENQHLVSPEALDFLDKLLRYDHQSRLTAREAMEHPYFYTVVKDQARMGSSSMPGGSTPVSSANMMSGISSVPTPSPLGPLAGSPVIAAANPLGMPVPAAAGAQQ

In the case of COc1ccc2c3ccnc(Cl)c3n(CC#N)c2c1 [AnnH75], the “residual activity at 1 µM, Mean” value [1] was 95 % of control, the “residual activity at 1 µM, Mean” value [2] was 91 % of control and the “residual activity at 1 µM, Mean” value [3] was 89 % of control. The “residual activity at 1 µM, Mean” value [4] was 98 % of control, the “residual activity at 1 µM, Mean” value [5] was 93 % of control and the “residual activity at 1 µM, Mean” value [6] was 92 % of control. The “residual activity at 1 µM, Mean” value [7] was 104 % of control, the “residual activity at 1 µM, Mean” value [8] was 102 % of control and the “residual activity at 1 µM, Mean” value [9] was 93 % of control. For the same compound, the “residual activity at 1 µM, Mean” value [10] was 96 % of control, the “residual activity at 1 µM, Mean” value [11] was 90 % of control and the “residual activity at 1 µM, Mean” value [12] was 104 % of control. For the same compound, the “residual activity at 1 µM, Mean” value [13] was 92 % of control, the “residual activity at 1 µM, Mean” value [14] was 87 % of control and the “residual activity at 1 µM, Mean” value [15] was 92 % of control. For the same compound, the “residual activity at 1 µM, Mean” value [16] was 84 % of control, the “residual activity at 1 µM, Mean” value [17] was 95 % of control and the “residual activity at 1 µM, Mean” value [18] was 108 % of control. The “residual activity at 1 µM, Mean” value [19] was 93 % of control, the “residual activity at 1 µM, Mean” value [20] was 86 % of control and the “residual activity at 1 µM, Mean” value [21] was 111 % of control. For the same compound, the “residual activity at 1 µM, Mean” value [22] was 100 % of control, the “residual activity at 1 µM, Mean” value [23] was 97 % of control and the “residual activity at 1 µM, Mean” value [24] was 44 % of control. For the same compound, the viability at 3 days, 1 µM ([25]; PC12, 1 μM) was 94%, the viability at 3 days, 3 µM ([25]; PC12, 3 μM) was 100% and the viability at 3 days, 10 µM ([25]; PC12, 10 μM) was 95%. The “cytotoxicity” value [26] was “minimal cytotoxicity”, the “residual activity at 1 µM, Mean” value [27] was 88 % of control and the “residual activity at 1 µM, Mean” value [28] was 91 % of control. For the same compound, the “residual activity at 1 µM, Mean” value [29] was 91 % of control, the “residual activity at 1 µM, Mean” value [30] was 95 % of control and the “residual activity at 1 µM, Mean” value [31] was 100 % of control. The “residual activity at 1 µM, Mean” value [32] was 96 % of control, the “residual activity at 1 µM, Mean” value [33] was 102 % of control and the “residual activity at 1 µM, Mean” value [34] was 63 % of control. The “residual activity at 1 µM, Mean” value [35] was 92 % of control, the “residual activity at 1 µM, Mean” value [36] was 91 % of control and the “residual activity at 1 µM, Mean” value [37] was 98 % of control. For the same compound, the “residual activity at 1 µM, Mean” value [38] was 87 % of control and the “residual activity at 1 µM, Mean” value [39] was 79 % of control.
